In the supplement of paper PMC10307832:

Assays:
Experiment in all cases: relative viability (nuclei count vs DMSO), 5 days (fraction); higher = more cells survive
Decitabine + Lapatinib = compound: Nc1ncn([C@H]2C[C@H](O)[C@@H](CO)O2)c(=O)n1 [Decitabine] + CS(=O)(=O)CCNCc1ccc(-c2ccc3ncnc(Nc4ccc(OCc5cccc(F)c5)c(Cl)c4)c3c2)o1 [Lapatinib] (partner 2 µM)
Method in brief: (§1)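 Lung cancer cell lines were pin-tool dosed in 1536-well plates on the day after seeding, with either a lone drug or a fixed anchor-drug dose plus five library-drug doses (not always all listed) in √10 steps. Nuclei were counted on 4× images after 5 days. Relative viability is the ratio of treated-well to vehicle-well nuclei counts, with each value a median of duplicate plates.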

[1] = compound: O=C(C[C@H]1NCCC[C@@H]1O)Cn1cnc2cc(Br)c(Cl)cc2c1=O (racemic) [Halofuginone] + CC(=O)c1c(C)c2cnc(Nc3ccc(N4CCNCC4)cn3)nc2n(C2CCCC2)c1=O [Palbociclib] (partner 0.5 µM)
Method in brief: as §1

Cediranib + Trametinib = compound: COc1cc2c(Oc3ccc4[nH]c(C)cc4c3F)ncnc2cc1OCCCN1CCCC1 [Cediranib] + CC(=O)Nc1cccc(-n2c(=O)n(C3CC3)c(=O)c3c(Nc4ccc(I)cc4F)n(C)c(=O)c(C)c32)c1 [Trametinib] (partner 0.02 µM)
Method in brief: as §1

[2] = compound: O=C(C[C@H]1NCCC[C@@H]1O)Cn1cnc2cc(Br)c(Cl)cc2c1=O (racemic) [Halofuginone] + C[C@]1(O)C[C@@H](c2nc(-c3ccc4ccc(-c5ccccc5)nc4c3)c3c(N)nccn32)C1 [Linsitinib] (partner 1 µM)
Method in brief: as §1

Cell Line	relative viability (Decitabine + Lapatinib; first compound 0.04 µM)	relative viability (Decitabine + Lapatinib; first compound 0.1265 µM)	relative viability (Decitabine + Lapatinib; first compound 0.4 µM)	relative viability (Decitabine + Lapatinib; first compound 1.265 µM)	relative viability (Decitabine + Lapatinib; first compound 4 µM)	relative viability ([1]; first compound 0.001 µM)	relative viability ([1]; first compound 0.003162 µM)	relative viability ([1]; first compound 0.01 µM)	relative viability ([1]; first compound 0.03162 µM)	relative viability ([1]; first compound 0.1 µM)	relative viability (Cediranib + Trametinib; first compound 0.04 µM)	relative viability (Cediranib + Trametinib; first compound 0.1265 µM)	relative viability (Cediranib + Trametinib; first compound 0.4 µM)	relative viability (Cediranib + Trametinib; first compound 1.265 µM)	relative viability (Cediranib + Trametinib; first compound 4 µM)	relative viability ([2]; first compound 0.001 µM)	relative viability ([2]; first compound 0.003162 µM)	relative viability ([2]; first compound 0.01 µM)	relative viability ([2]; first compound 0.03162 µM)	relative viability ([2]; first compound 0.1 µM)
NCI-H2085	0.628	0.646	0.446	0.494	0.445	0.521	0.461	0.458	0.461	0.487	0.571	0.523	0.475	0.49	0.526	0.863	1.01	0.864	0.898	0.627
NCI-H2087	0.774	0.637	0.457	0.346	0.37	0.254	0.22	0.189	0.22	0.2	0.221	0.29	0.179	0.183	0.288	1.01	1.04	0.945	0.98	0.833
NCI-H2126	0.749	0.781	0.472	0.564	0.544	0.362	0.344	0.347	0.346	0.354	0.575	0.551	0.551	0.578	0.531	0.73	0.671	0.673	0.71	0.648
NCI-H2228	0.595	0.727	0.489	0.282	0.209	0.957	0.736	0.971	0.496	0.111	0.46	0.376	0.398	0.565	0.505	0.589	0.926	0.69	0.394	0.199
NCI-H2347	0.895	0.938	0.793	0.548	0.633	0.44	0.453	0.513	0.438	0.332	0.316	0.282	0.233	0.286	0.318	1.06	1.05	0.902	1.04	0.777
NCI-H2405	0.942	0.904	0.679	0.553	0.434	0.573	0.565	0.527	0.498	0.424	0.647	0.941	0.562	0.636	0.614	0.991	1.05	1.01	0.906	0.69
